Source: patent US7846902B2, “Dipeptide-comprising composition for oral administration” (Kyowa Hakko Bio Co., Ltd., priority 2005, dated 2010)
Peptide text beside a SMILES is read from it.

Details: 37° C., 2 hours
Protocol: 10 μL of the resultant dipeptide solution was mixed with 4 μL of blood plasma or 4 μL of water, and was incubated at 37° C. for 2 hours. The mixture solution after incubation was applied to a TLC plate (manufactured by Merck Ltd.), and developed with a solution containing butanol (Kishida Chemical Co., Ltd.), acetic acid (Kishida Chemical Co., Ltd.) and water in a ratio of 2:1:1. A 1% ninhydrin solution was sprayed onto the mixture, which was then incubated at 80° C. for 5 minutes. Incidentally, the 1% ninhydrin solution was prepared by dissolving ninhydrin (Wako Pure Chemical Industries, Ltd.) in ethanol (Kishida Chemical Co., Ltd.).

| TLC spots when mixed with water | SMILES |
| --- | --- |
| single spot alone | CC(C)[C@H](NC(=O)[C@H](C)N)C(=O)O [Alanyl-Valine, alanyl-valine] (H-Ala-Val-OH) |
| single spot alone | CC[C@H](C)[C@H](NC(=O)[C@H](C)N)C(=O)O [Alanyl-Isoleucine, alanyl-isoleucine] (H-Ala-Ile-OH) |
| single spot alone | CC(C)C[C@H](NC(=O)[C@H](C)N)C(=O)O [Alanyl-Leucine, alanyl-leucine] (H-Ala-Leu-OH) |
